Laboratory results from ChEMBL document CHEMBL1134114, “Novel sulfonate derivatives: potent antimitotic agents” (Bioorg Med Chem Lett, 2001).

What was measured:
NCI-H460 [1] = assay: Antiproliferative activity against human lung carcinoma NCI-H460 cell line (MDR(-))
HCT-15 [2] = assay: Antiproliferative activity against human colon carcinoma HCT-15 cell line(MDR(+))
Tubulin alpha chain = Tubulin alpha chain (Sus scrofa, UniProt P02550); assay: Concentration inhibiting tubulin polymerization; format: functional
Chain of Tubulin alpha chain (P02550 whole entry, looked up): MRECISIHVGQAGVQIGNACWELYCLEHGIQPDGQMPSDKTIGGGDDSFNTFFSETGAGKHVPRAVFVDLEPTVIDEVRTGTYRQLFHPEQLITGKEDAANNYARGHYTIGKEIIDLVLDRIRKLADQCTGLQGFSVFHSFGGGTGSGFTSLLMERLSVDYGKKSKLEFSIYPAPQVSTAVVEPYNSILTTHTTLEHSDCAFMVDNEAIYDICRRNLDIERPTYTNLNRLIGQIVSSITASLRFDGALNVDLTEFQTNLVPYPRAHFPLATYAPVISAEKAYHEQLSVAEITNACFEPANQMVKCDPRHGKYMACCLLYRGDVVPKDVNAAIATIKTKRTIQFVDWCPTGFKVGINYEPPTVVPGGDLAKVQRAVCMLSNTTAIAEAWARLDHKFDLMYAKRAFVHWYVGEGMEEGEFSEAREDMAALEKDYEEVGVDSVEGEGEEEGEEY

NCI-H460 [3] = assay: Antiproliferative activity against human lung carcinoma NCI-H460 cell line (MDR(-)); Inactive at >10 uM
HCT-15 [4] = assay: Antiproliferative activity against human colon carcinoma HCT-15 cell line(MDR(+)); Inactive at >10 uM

Row | SMILES | IC50 (NCI-H460 [1]) [nM] | IC50 (HCT-15 [2]) [nM] | IC50 (Tubulin alpha chain) [nM] | IC50 (NCI-H460 [3]) | IC50 (HCT-15 [4])
1 | COc1ccc(S(=O)(=O)Oc2ccccc2NC(=O)Cc2ccncc2)cc1 | 720 | 600 | – | – | –
2 | COc1ccc(S(=O)(=O)Oc2ccccc2NC(=O)c2ccc3ncccc3c2)cc1 | > 10000 | > 10000 | – | – | –
3 | COc1ccc(S(=O)(=O)Oc2ccccc2NC(=O)c2ccncc2)cc1 | 55 | 89 | 3730 | – | –
4 | COc1ccc(S(=O)(=O)Oc2cccnc2NC(=O)c2ccncc2)cc1 | – | – | – | Not Active | Not Active
5 | COc1ccc(S(=O)(=O)Oc2ccccc2C(=O)Nc2ccc(F)cc2)cc1 | – | – | – | Not Active | Not Active
6 | COc1ccc(S(=O)(=O)Nc2cccnc2Nc2ccc(O)cc2)cc1 [ABT-751] | 350 | 340 | 3100 | – | –
7 | COc1ccc(S(=O)(=O)Oc2ccccc2NC(=O)c2cccnc2)cc1 | > 6000 | > 3000 | – | – | –
8 | COc1ccc(S(=O)(=O)Oc2ccccc2C(=O)Nc2ccncc2)cc1 | – | – | – | Not Active | Not Active
9 | COc1ccc(S(=O)(=O)Oc2cccnc2NC(=O)c2ccco2)cc1 | – | – | – | Not Active | Not Active
10 | COc1ccc(S(=O)(=O)Oc2ccccc2C(=O)Nc2ccccc2)cc1 | – | – | – | Not Active | Not Active
11 | COc1ccc(S(=O)(=O)Oc2ccccc2NC(=O)c2ccc(N(C)C)cc2)cc1 | > 10000 | > 10000 | – | – | –
12 | COc1ccc(S(=O)(=O)Oc2ccccc2NC(=O)c2ccnc3ccccc23)cc1 | > 10000 | > 10000 | – | – | –
13 | COc1ccc(S(=O)(=O)Oc2ccccc2NC(=O)Oc2ccccc2)cc1 | > 10000 | > 10000 | – | – | –
14 | COc1ccc(S(=O)(=O)Oc2ccccc2NC(=O)c2ccc(F)cc2)cc1 | 550 | 89 | – | – | –
15 | COc1ccc(S(=O)(=O)Oc2ccccc2C(=O)Nc2ccccc2C)cc1 | – | – | – | Not Active | Not Active
16 | COc1ccc(S(=O)(=O)Oc2ccccc2NC(=O)c2ccco2)cc1 | 24 | 19 | – | – | –
17 | COc1ccc(S(=O)(=O)Oc2ccccc2/C=C/c2ccncc2)cc1 | 130 | 56 | 3460 | – | –
18 | COc1ccc(S(=O)(=O)Oc2ccccc2NC(=O)c2ccccn2)cc1 | 300 | 110 | 4060 | – | –
19 | COc1ccc(S(=O)(=O)Oc2ccccc2NC(=O)Nc2ccccc2)cc1 | > 10000 | > 10000 | – | – | –
20 | COc1ccc(S(=O)(=O)Oc2ccccc2NC(=O)c2cnccn2)cc1 | 250 | 68 | 5200 | – | –
21 | COc1ccc(S(=O)(=O)Oc2ccccc2NC(=O)c2ccccc2)cc1 | 410 | 310 | – | – | –
